Measured values from PubChem BioAssay AID248 (DTP/NCI, 2004).
“And” between values parts separate entries of the source, which are not always exact repeats. Identical values can stand only once. Toxic doses and inconclusive results are not listed. Cut-off read from the data, not from the text of the source: active = T/C of 150% or more; inactive = T/C below 125%.

System: L1210 leukemia ip in BDF1 mice, survival T/C
Experiment: NCI In Vivo Anticancer Drug Screen. Data for tumor model L1210 Leukemia (intraperitoneal) in B6D2F1 (BDF1) mice
Conditions: endpoint: mean survival time, higher = longer survival
Outline: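 In this screen, tumor-bearing mice given compound are compared to those given vehicle, and their survival values are reported as a treated-to-control quotient.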

[1] = dose: 100.0 mg/kg/injection, schedule: Q01DX009 (ip), vehicle: saline
[2] = dose: 100.0 mg/kg/injection, schedule: Q04DX003 (ip), vehicle: saline
[3] = dose: 200.0 mg/kg/injection, schedule: Q01DX009 (ip), vehicle: saline
[4] = dose: 200.0 mg/kg/injection, schedule: Q04DX003 (ip), vehicle: saline
[5] = dose: 400.0 mg/kg/injection, schedule: Q01DX009 (ip), vehicle: saline
[6] = dose: 400.0 mg/kg/injection, schedule: Q04DX003 (ip), vehicle: saline
[7] = dose: 100.0 mg/kg/injection, schedule: Q01DX009 (ip), vehicle: Klucel (hydroxypropylcellulose) (HPC)
[8] = dose: 100.0 mg/kg/injection, schedule: Q04DX003 (ip), vehicle: Klucel (hydroxypropylcellulose) (HPC)
[9] = dose: 200.0 mg/kg/injection, schedule: Q01DX009 (ip), vehicle: Klucel (hydroxypropylcellulose) (HPC)
[10] = dose: 200.0 mg/kg/injection, schedule: Q04DX003 (ip), vehicle: Klucel (hydroxypropylcellulose) (HPC)
[11] = dose: 400.0 mg/kg/injection, schedule: Q01DX009 (ip), vehicle: Klucel (hydroxypropylcellulose) (HPC)
[12] = dose: 400.0 mg/kg/injection, schedule: Q04DX003 (ip), vehicle: Klucel (hydroxypropylcellulose) (HPC)
[13] = dose: 100.0 mg/kg/injection, schedule: Q01DX001 (ip), vehicle: saline
[14] = dose: 200.0 mg/kg/injection, schedule: Q01DX001 (ip), vehicle: saline
[15] = dose: 100.0 mg/kg/injection, schedule: Q04DX002 (ip), vehicle: saline with Tween-80
[16] = dose: 200.0 mg/kg/injection, schedule: Q04DX002 (ip), vehicle: saline with Tween-80
[17] = dose: 400.0 mg/kg/injection, schedule: Q04DX002 (ip), vehicle: saline with Tween-80

Measured: T/C

CC1(C2CC2)NC(=O)NC1=O (configuration not stated)
inactive: [1] 97 % of control | [2] 92 % of control | [3] 89 % of control | [4] 97 % of control | [5] 95 % of control | [6] 95 % of control

CCC(=O)C(CCN1CCC(n2c(=O)[nH]c3ccccc32)CC1)(c1ccccc1)c1ccccc1
inactive: dose: 0.2 mg/kg/injection, schedule: Q01DX009 (ip), vehicle: saline with Tween-80 90 % of control | dose: 0.4 mg/kg/injection, schedule: Q01DX009 (ip), vehicle: saline with Tween-80 89 % of control | dose: 0.78 mg/kg/injection, schedule: Q01DX009 (ip), vehicle: saline with Tween-80 88 % of control | dose: 0.8 mg/kg/injection, schedule: Q01DX009 (ip), vehicle: saline with Tween-80 104 % of control | dose: 3.13 mg/kg/injection, schedule: Q01DX009 (ip), vehicle: saline with Tween-80 98 % of control | dose: 6.25 mg/kg/injection, schedule: Q01DX009 (ip), vehicle: saline with Tween-80 93 % of control and 89 % of control | dose: 12.5 mg/kg/injection, schedule: Q01DX009 (ip), vehicle: saline with Tween-80 95 % of control | dose: 25.0 mg/kg/injection, schedule: Q01DX009 (ip), vehicle: saline with Tween-80 90 % of control | dose: 50.0 mg/kg/injection, schedule: Q01DX009 (ip), vehicle: saline with Tween-80 86 % of control | dose: 100.0 mg/kg/injection, schedule: Q01DX009 (ip), vehicle: saline with Tween-80 96 % of control and 92 % of control

CN(CCC#N)CCC#N
inactive: [2] 109 % of control | [4] 94 % of control | [6] 101 % of control

NC(CSCc1ccc([N+](=O)[O-])cc1)C(=O)O (configuration not stated)
inactive: [2] 102 % of control | [4] 105 % of control | [6] 96 % of control

Nc1ncc(C=O)c(N)n1
inactive: dose: 6.25 mg/kg/injection, schedule: Q01DX009 (ip), vehicle: Klucel (hydroxypropylcellulose) (HPC) 113 % of control | dose: 12.5 mg/kg/injection, schedule: Q01DX009 (ip), vehicle: Klucel (hydroxypropylcellulose) (HPC) 100 % of control

O=C(C(=O)c1ccc(O)cc1)c1ccccc1
inactive: dose: 100.0 mg/kg/injection, schedule: Q01DX001 (ip), vehicle: carboxymethylcellulose (CMC) 103 % of control | dose: 200.0 mg/kg/injection, schedule: Q01DX001 (ip), vehicle: carboxymethylcellulose (CMC) 97 % of control | dose: 400.0 mg/kg/injection, schedule: Q01DX001 (ip), vehicle: carboxymethylcellulose (CMC) 97 % of control

CCC(C)(CC)c1ccc(O)c(C)c1
inactive: dose: 100.0 mg/kg/injection, schedule: Q01DX009 (sc), vehicle: olive oil, sesame oil, peanut oil 104 % of control | dose: 100.0 mg/kg/injection, schedule: Q04DX003 (sc), vehicle: olive oil, sesame oil, peanut oil 104 % of control | dose: 200.0 mg/kg/injection, schedule: Q01DX009 (sc), vehicle: olive oil, sesame oil, peanut oil 112 % of control | dose: 200.0 mg/kg/injection, schedule: Q04DX003 (sc), vehicle: olive oil, sesame oil, peanut oil 106 % of control | dose: 400.0 mg/kg/injection, schedule: Q01DX009 (sc), vehicle: olive oil, sesame oil, peanut oil 101 % of control | dose: 400.0 mg/kg/injection, schedule: Q04DX003 (sc), vehicle: olive oil, sesame oil, peanut oil 108 % of control

Cc1cc(Cl)ccc1NC(=O)C(c1ccccc1)c1ccccc1
inactive: [7] 89 % of control | [8] 101 % of control | [9] 92 % of control | [10] 95 % of control | [11] 93 % of control | [12] 88 % of control

O=C/C=C/c1cc(Cl)ccc1O
inactive: [13] 108 % of control | [14] 103 % of control

CCOC(=O)C1(C#N)C(=O)CSC1=Nc1ccccc1Cl (configuration not stated)
inactive: [15] 95 % of control | [16] 102 % of control | [17] 95 % of control

C=C1CC(c2ccccc2)(c2cccs2)OC1=O (configuration not stated)
inactive: [8] 98 % of control | [10] 96 % of control

N=C(c1ccccc1)c1ccccc1
inactive: dose: 100.0 mg/kg/injection, schedule: Q01DX001 (ip), vehicle: saline with Tween-80 100 % of control | dose: 200.0 mg/kg/injection, schedule: Q01DX001 (ip), vehicle: saline with Tween-80 101 % of control | dose: 400.0 mg/kg/injection, schedule: Q01DX001 (ip), vehicle: saline with Tween-80 94 % of control

NCC1CC2CCC1CC2 (configuration not stated)
inactive: dose: 12.5 mg/kg/injection, schedule: Q01DX009 (ip), vehicle: alcohol 106 % of control | dose: 25.0 mg/kg/injection, schedule: Q01DX009 (ip), vehicle: alcohol 101 % of control | dose: 50.0 mg/kg/injection, schedule: Q01DX009 (ip), vehicle: alcohol 106 % of control

CC(Br)c1ccc(S(=O)(=O)F)cc1 (configuration not stated)
inactive: [15] 104 % of control | [16] 101 % of control

Cc1cc2c(cc1C)NC(C)CC(=O)N2 (configuration not stated)
inactive: dose: 25.0 mg/kg/injection, schedule: Q01DX009 (ip), vehicle: Klucel (hydroxypropylcellulose) (HPC) 109 % of control | dose: 50.0 mg/kg/injection, schedule: Q01DX009 (ip), vehicle: Klucel (hydroxypropylcellulose) (HPC) 98 % of control | [7] 104 % of control | [1] 111 % of control | [2] 96 % of control | dose: 133.0 mg/kg/injection, schedule: Q01DX009 (ip), vehicle: Klucel (hydroxypropylcellulose) (HPC) 99 % of control | [9] 94 % of control and 124 % of control | [4] 108 % of control | [6] 105 % of control

ON=C1C2CC3CC(C2)CC1C3
inactive: dose: 75.0 mg/kg/injection, schedule: Q01DX001 (ip), vehicle: other 96 % of control | dose: 150.0 mg/kg/injection, schedule: Q01DX001 (ip), vehicle: other 94 % of control | dose: 300.0 mg/kg/injection, schedule: Q01DX001 (ip), vehicle: other 93 % of control

Nc1ccccc1Sc1ccc2c3c(cccc13)C(=O)N(c1ccccc1)C2=O
inactive: [15] 87 % of control | [17] 94 % of control

COC(=O)c1ccc(C(=O)OC)[n+]([O-])c1
inactive: [1] 102 % of control | [2] 103 % of control | [3] 106 % of control | [4] 108 % of control | dose: 266.0 mg/kg/injection, schedule: Q04DX003 (ip), vehicle: saline 93 % of control | [5] 106 % of control | [6] 101 % of control | dose: 600.0 mg/kg/injection, schedule: Q04DX003 (ip), vehicle: saline 90 % of control

C[n+]1cccc(S(=O)(=O)[O-])c1
inactive: [2] 104 % of control | [4] 101 % of control | [6] 101 % of control

CC(=O)OC1C=CC(Oc2ccc([N+](=O)[O-])cc2)OC1CO (configuration not stated)
inactive: [2] 93 % of control | [4] 91 % of control | [6] 96 % of control

CC(O)CN1CC(C)N(CC(C)O)CC1C (configuration not stated)
inactive: [1] 104 % of control | [2] 100 % of control | [3] 102 % of control | [4] 86 % of control | [5] 98 % of control | [6] 88 % of control

CC1(C)C2CCC1(C)C(COC(=O)c1cc([N+](=O)[O-])cc([N+](=O)[O-])c1)C2 (configuration not stated)
inactive: [7] 100 % of control | [8] 104 % of control | [9] 92 % of control | [10] 100 % of control | [11] 89 % of control | [12] 102 % of control

O=C(Nc1ccc([N+](=O)[O-])cc1)c1cc(N2CCCC2)ccn1
inactive: [13] 100 % of control | [14] 96 % of control | dose: 400.0 mg/kg/injection, schedule: Q01DX001 (ip), vehicle: saline 100 % of control
